Series [1] addresses T1, P-selectin (Homo sapiens, UniProt P16109).
T1 construct: P-selectin is isolated from human platelet lysates; from tissue; host or cells: human platelets (outdated platelet packs from a blood bank)
T1 sequence (P16109 42-830): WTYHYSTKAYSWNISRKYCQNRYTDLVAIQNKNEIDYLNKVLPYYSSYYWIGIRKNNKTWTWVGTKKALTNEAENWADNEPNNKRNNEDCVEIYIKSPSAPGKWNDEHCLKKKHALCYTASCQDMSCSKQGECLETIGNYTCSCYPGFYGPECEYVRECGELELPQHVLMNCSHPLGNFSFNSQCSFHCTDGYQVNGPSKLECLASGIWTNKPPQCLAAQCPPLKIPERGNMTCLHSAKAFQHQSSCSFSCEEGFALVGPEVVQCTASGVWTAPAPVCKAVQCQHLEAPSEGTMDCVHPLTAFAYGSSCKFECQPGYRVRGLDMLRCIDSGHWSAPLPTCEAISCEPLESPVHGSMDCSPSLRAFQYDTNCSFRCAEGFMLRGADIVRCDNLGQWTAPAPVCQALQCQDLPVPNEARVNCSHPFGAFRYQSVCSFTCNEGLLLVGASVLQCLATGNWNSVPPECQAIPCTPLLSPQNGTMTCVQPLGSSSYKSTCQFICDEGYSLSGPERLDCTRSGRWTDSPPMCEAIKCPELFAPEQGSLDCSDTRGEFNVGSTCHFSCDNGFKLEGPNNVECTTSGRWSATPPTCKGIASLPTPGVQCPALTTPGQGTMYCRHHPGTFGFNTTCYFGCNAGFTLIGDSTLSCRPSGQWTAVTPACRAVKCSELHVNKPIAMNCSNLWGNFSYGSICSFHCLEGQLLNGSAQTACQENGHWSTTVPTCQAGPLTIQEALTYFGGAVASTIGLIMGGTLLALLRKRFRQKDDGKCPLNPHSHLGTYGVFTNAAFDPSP
Briefly: Inhibition of human neutrophil adhesion to purified P-selectin immobilized on plastic wells. In kind it is cell-based. To be noted: inhibiting the binding of human neutrophils to P-selectin. The procedure, abridged:
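Isolated human neutrophils (2×10^5 per well) in HBSS with Ca2+/Mg2+ and HSA added to wells coated overnight at 4° C with platelet-derived P-selectin (5 micrograms/mL), HSA-blocked; 20 min at 22° C. Nonadherent cells removed by inverted centrifugation at 150 g; adherent cells quantified by myeloperoxidase activity.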

Several values for one entry are separate records, joined by “and”; a condition that tells them apart may be missing. Equal values may be shown once. Read-outs that look alike come from different tables or passages of the source. Where a SMILES comes first, the peptide text is derived from it. Bridges are numbered along the chain shown (N, C = ends). [ ]: non-standard residue; d: D form.

With `CC(C)[C@@H](NC(=O)[C@@H](Cc1c[nH]c2ccccc12)NC(=O)[C@H](NC(=O)[C@@H](Cc1c[nH]c2ccccc12)NC(=O)[C@H]1CSSC[C@@H](NC(=O)[C@@H](CCCCN)NC(=O)[C@H](N)CCCNC(=N)N)C(=O)N[C@@H](Cc2c[nH]cn2)C(=O)N[C@@H](Cc2ccccc2)C(=O)N1)[C@H](C)O)C(N)=O` [(94)] (H-[dR][dK][dC]HF[dC][dW][dT][dW][dV]-NH2; disulfide 3-6), the ring closure, yield of all isomers (from CC(C)[C@@H](NC(=O)[C@@H](Cc1c[nH]c2ccccc12)NC(=O)[C@H](NC(=O)[C@@H](Cc1c[nH]c2ccccc12)NC(=O)[C@@H](CS)NC(=O)[C@H](Cc1ccccc1)NC(=O)[C@H](Cc1c[nH]cn1)NC(=O)[C@@H](CS)NC(=O)[C@@H](CCCCN)NC(=O)[C@H](N)CCCNC(=N)N)[C@H](C)O)C(N)=O, disulfide bond, DMSO, water, 0.714 mM) is 10.7%. Moreover, the IC50 (usually the point on the concentration scale where inhibition reaches its midpoint) in series [1] came out at 2.2 µM.
In turn, `CC(C)[C@@H](NC(=O)[C@@H](Cc1c[nH]c2ccccc12)NC(=O)[C@H](NC(=O)[C@@H](Cc1c[nH]c2ccccc12)NC(=O)[C@H]1CSSC[C@@H](NC(=O)[C@@H](CCCCN)NC(=O)[C@H](N)CCCNC(=N)N)C(=O)N[C@@H](CCCCN)C(=O)N[C@@H](Cc2ccccc2)C(=O)N1)[C@H](C)O)C(N)=O` [(70)] (H-[dR][dK][dC]KF[dC][dW][dT][dW][dV]-NH2; disulfide 3-6) yielded a ring closure, yield of all isomers (from CC(C)[C@@H](NC(=O)[C@@H](Cc1c[nH]c2ccccc12)NC(=O)[C@H](NC(=O)[C@@H](Cc1c[nH]c2ccccc12)NC(=O)[C@@H](CS)NC(=O)[C@H](Cc1ccccc1)NC(=O)[C@H](CCCCN)NC(=O)[C@@H](CS)NC(=O)[C@@H](CCCCN)NC(=O)[C@H](N)CCCNC(=N)N)[C@H](C)O)C(N)=O, disulfide bond, DMSO, water, 0.708 mM, 48.0 h) of 8.8%. This compound had an IC50 in series [1] of 85.9 µM.
Take `CC(C)C[C@H]1NC(=O)CNC(=O)[C@H](NC(=O)[C@@H](CCCCN)NC(=O)[C@H](N)CCCNC(=N)N)CSSC[C@H](C(=O)N[C@H](Cc2c[nH]c3ccccc23)C(=O)N[C@@H](C(=O)N[C@H](Cc2c[nH]c3ccccc23)C(=O)N[C@@H](C(N)=O)C(C)C)[C@H](C)O)NC1=O` [(53)] (H-[dR][dK][dC]G[dL][dC][dW][dT][dW][dV]-NH2; disulfide 3-6): the ring closure, yield of all isomers (from CC(C)C[C@@H](NC(=O)CNC(=O)[C@@H](CS)NC(=O)[C@@H](CCCCN)NC(=O)[C@H](N)CCCNC(=N)N)C(=O)N[C@H](CS)C(=O)N[C@H](Cc1c[nH]c2ccccc12)C(=O)N[C@@H](C(=O)N[C@H](Cc1c[nH]c2ccccc12)C(=O)N[C@@H](C(N)=O)C(C)C)[C@H](C)O, disulfide bond, DMSO, water, 0.252 mM, 25.0 °C, 48.0 h) came to 17.4%. Moreover, the IC50 in series [1] came out at 18.7 µM.
As for `CC(C)[C@@H](NC(=O)[C@@H](Cc1c[nH]c2ccccc12)NC(=O)[C@H](NC(=O)[C@@H](Cc1c[nH]c2ccccc12)NC(=O)[C@H]1CSSC[C@@H](NC(=O)[C@@H](CCCCN)NC(=O)[C@H](N)CCCNC(=N)N)C(=O)NCC(=O)NCC(=O)N1)[C@H](C)O)C(N)=O` [(25)] (H-[dR][dK][dC]GG[dC][dW][dT][dW][dV]-NH2; disulfide 3-6), the ring closure, yield of all isomers (from CC(C)[C@@H](NC(=O)[C@@H](Cc1cn(C=O)c2ccccc12)NC(=O)[C@H](NC(=O)[C@@H](Cc1cn(C=O)c2ccccc12)NC(=O)[C@@H](CS)NC(=O)CNC(=O)CNC(=O)[C@@H](CS)NC(=O)[C@@H](CCCCN)NC(=O)[C@H](N)CCCNC(=N)N)[C@H](C)O)C(N)=O, disulfide bond, DMSO, water, 1.4 mM, 16.0 h, 2 steps) was determined as 2.4%. For the same compound, the IC50 in series [1] was found to be 17 µM.
For the compound `CC(C)[C@@H](NC(=O)[C@@H](Cc1c[nH]c2ccccc12)NC(=O)[C@H](NC(=O)[C@@H](Cc1c[nH]c2ccccc12)NC(=O)[C@H]1CSSC[C@@H](NC(=O)[C@@H](CCCCN)NC(=O)[C@H](N)CCCNC(=N)N)C(=O)N[C@H](Cc2c[nH]cn2)C(=O)N[C@@H](Cc2ccccc2)C(=O)N1)[C@H](C)O)C(N)=O` [(47)] (H-[dR][dK][dC][dH]F[dC][dW][dT][dW][dV]-NH2; disulfide 3-6), the ring closure, yield of all isomers (from CC(C)[C@@H](NC(=O)[C@@H](Cc1c[nH]c2ccccc12)NC(=O)[C@H](NC(=O)[C@@H](Cc1c[nH]c2ccccc12)NC(=O)[C@@H](CS)NC(=O)[C@H](Cc1ccccc1)NC(=O)[C@@H](Cc1c[nH]cn1)NC(=O)[C@@H](CS)NC(=O)[C@@H](CCCCN)NC(=O)[C@H](N)CCCNC(=N)N)[C@H](C)O)C(N)=O, disulfide bond, DMSO, water, 0.698 mM, 24.0 h) came out at 3.5%. In addition, the IC50 in series [1] amounted to 7 µM.
`CC(C)[C@@H](NC(=O)[C@@H](Cc1c[nH]c2ccccc12)NC(=O)[C@H](NC(=O)[C@@H](Cc1c[nH]c2ccccc12)NC(=O)[C@H]1CSSC[C@@H](NC(=O)[C@@H](CCCCN)NC(=O)[C@H](N)CCCNC(=N)N)C(=O)NCC(=O)N[C@@H](CCC(N)=O)C(=O)N1)[C@H](C)O)C(N)=O` [(65)] (H-[dR][dK][dC]GQ[dC][dW][dT][dW][dV]-NH2; disulfide 3-6): for the setting “from CC(C)[C@@H](NC(=O)[C@@H](Cc1c[nH]c2ccccc12)NC(=O)[C@H](NC(=O)[C@@H](Cc1c[nH]c2ccccc12)NC(=O)[C@@H](CS)NC(=O)[C@H](CCC(N)=O)NC(=O)CNC(=O)[C@@H](CS)NC(=O)[C@@H](CCCCN)NC(=O)[C@H](N)CCCNC(=N)N)[C@H](C)O)C(N)=O, disulfide bond, Cu wire, NH4OH (printed NH2OH), water, 3.16 mM, 20.0 h”, the ring closure, yield of all isomers was determined as 6.1%. Moreover, the IC50 in series [1] was 46.2 µM and 78.3 µM.
`CC(C)[C@@H](NC(=O)[C@@H](Cc1c[nH]c2ccccc12)NC(=O)[C@H](NC(=O)[C@@H](Cc1c[nH]c2ccccc12)NC(=O)[C@H]1CSSC[C@@H](NC(=O)[C@@H](CCCCN)NC(=O)[C@H](N)CCCNC(=N)N)C(=O)NCC(=O)N[C@@H](Cc2ccccc2)C(=O)N1)[C@H](C)O)C(N)=O` showed a ring closure, yield of all isomers (from CC(C)[C@@H](NC(=O)[C@@H](Cc1c[nH]c2ccccc12)NC(=O)[C@H](NC(=O)[C@@H](Cc1c[nH]c2ccccc12)NC(=O)[C@@H](CS)NC(=O)[C@H](Cc1ccccc1)NC(=O)CNC(=O)[C@@H](CS)NC(=O)[C@@H](CCCCN)NC(=O)[C@H](N)CCCNC(=N)N)[C@H](C)O)C(N)=O, disulfide bond, DMSO, water, 0.253 mM, 16.0 h) of 10.8%.
`CC(C)[C@@H](NC(=O)[C@@H](Cc1c[nH]c2ccccc12)NC(=O)[C@H](NC(=O)[C@@H](Cc1c[nH]c2ccccc12)NC(=O)[C@H]1CSSC[C@@H](NC(=O)[C@@H](CCCCN)NC(=O)[C@H](N)CCCNC(=N)N)C(=O)N[C@H](Cc2ccccc2)C(=O)NCC(=O)N1)[C@H](C)O)C(N)=O` [(12)] (H-[dR][dK][dC][dF]G[dC][dW][dT][dW][dV]-NH2; disulfide 3-6) showed a ring closure, yield of all isomers (from CC(C)[C@@H](NC(=O)[C@@H](Cc1c[nH]c2ccccc12)NC(=O)[C@H](NC(=O)[C@@H](Cc1c[nH]c2ccccc12)NC(=O)[C@@H](CS)NC(=O)CNC(=O)[C@@H](Cc1ccccc1)NC(=O)[C@@H](CS)NC(=O)[C@@H](CCCCN)NC(=O)[C@H](N)CCCNC(=N)N)[C@H](C)O)C(N)=O, disulfide bond, DMSO, water, 0.255 mM, 16.0 h) of 18.7%. For the same compound, in series [1], the IC50 is 48 µM.
As for `CC(C)[C@@H](NC(=O)[C@@H](Cc1c[nH]c2ccccc12)NC(=O)[C@H](NC(=O)[C@@H](Cc1c[nH]c2ccccc12)NC(=O)[C@H]1CSSC[C@@H](NC(=O)[C@@H](CCCCN)NC(=O)[C@H](N)CCCNC(=N)N)C(=O)NCCC(=O)N[C@@H](Cc2ccccc2)C(=O)N1)[C@H](C)O)C(N)=O`, the ring closure, yield of all isomers (from CC(C)[C@@H](NC(=O)[C@@H](Cc1c[nH]c2ccccc12)NC(=O)[C@H](NC(=O)[C@@H](Cc1c[nH]c2ccccc12)NC(=O)[C@@H](CS)NC(=O)[C@H](Cc1ccccc1)NC(=O)CCNC(=O)[C@@H](CS)NC(=O)[C@@H](CCCCN)NC(=O)[C@H](N)CCCNC(=N)N)[C@H](C)O)C(N)=O, disulfide bond, air, Cu wire, ammonium acetate pH 8.5, water, 0.842 mM, 22.0 h) turned out to be 8.1%.
`CC(C)[C@H](NC(=O)[C@@H](Cc1c[nH]c2ccccc12)NC(=O)[C@H](NC(=O)[C@@H](Cc1c[nH]c2ccccc12)NC(=O)[C@H]1CSSC[C@@H](NC(=O)[C@@H](CCCCN)NC(=O)[C@H](N)CCCNC(=N)N)C(=O)NCC(=O)N[C@@H](Cc2ccccc2)C(=O)N1)[C@H](C)O)C(N)=O` came in with a ring closure, yield of all isomers (from CC(C)[C@H](NC(=O)[C@@H](Cc1c[nH]c2ccccc12)NC(=O)[C@H](NC(=O)[C@@H](Cc1c[nH]c2ccccc12)NC(=O)[C@@H](CS)NC(=O)[C@H](Cc1ccccc1)NC(=O)CNC(=O)[C@@H](CS)NC(=O)[C@@H](CCCCN)NC(=O)[C@H](N)CCCNC(=N)N)[C@H](C)O)C(N)=O, disulfide bond, DMSO, water, 0.161 mM) of 9.4%.
For `CC(C)[C@H](NC(=O)[C@H](Cc1c[nH]c2ccccc12)NC(=O)[C@@H](NC(=O)[C@H](Cc1c[nH]c2ccccc12)NC(=O)[C@@H]1CC(=O)NC[C@H](NC(=O)[C@H](CCCCN)NC(=O)[C@@H](N)CCCNC(=N)N)C(=O)NCC(=O)NCC(=O)N1)[C@@H](C)O)C(N)=O`, the ring closure, yield of all isomers (amide bond, BOP/HOBt/DIEA, NMP, 80.0 h, 9 steps) worked out at 8.5%.

Source of the values: US5753617A, “Peptide inhibitors of cellular adhesion” (Centocor, Inc., priority 1995, dated 1998).
